One may read the IC50 as the concentration needed to halve the response being measured. A higher IC50 goes with lower potency.

The text below walks through data of patent US6509368B1, “Use of catechol derivatives as proteinase inhibitors” (Gruenenthal GmbH, priority 1998, dated 2003).

Experiment [1] has as its target Stromelysin-1 (MMP-3) (Homo sapiens, UniProt P08254). Briefly: Inhibition of purified stromelysin-1 in vitro. It is filed as biochemical. The method, then: (§1) The experiments were carried out in vitro using purified human enzymes. The enzyme substrates used were substrates to be measured by photometry or fluorometry.
Experiment [2] has as its target Human leucocyte collagenase (MMP-8) (Homo sapiens, UniProt P22894). Briefly: Inhibition of purified human leucocyte collagenase in vitro. It is filed as biochemical. The method, then: as §1
Experiment [3] deals with Human gelatinase B (MMP-9) (Homo sapiens, UniProt P14780). As to the kind of experiment: Inhibition of purified human gelatinase B in vitro. The experiment is classed as biochemical. The procedure: as §1
Chain of Human gelatinase B (MMP-9) (P14780 94-707): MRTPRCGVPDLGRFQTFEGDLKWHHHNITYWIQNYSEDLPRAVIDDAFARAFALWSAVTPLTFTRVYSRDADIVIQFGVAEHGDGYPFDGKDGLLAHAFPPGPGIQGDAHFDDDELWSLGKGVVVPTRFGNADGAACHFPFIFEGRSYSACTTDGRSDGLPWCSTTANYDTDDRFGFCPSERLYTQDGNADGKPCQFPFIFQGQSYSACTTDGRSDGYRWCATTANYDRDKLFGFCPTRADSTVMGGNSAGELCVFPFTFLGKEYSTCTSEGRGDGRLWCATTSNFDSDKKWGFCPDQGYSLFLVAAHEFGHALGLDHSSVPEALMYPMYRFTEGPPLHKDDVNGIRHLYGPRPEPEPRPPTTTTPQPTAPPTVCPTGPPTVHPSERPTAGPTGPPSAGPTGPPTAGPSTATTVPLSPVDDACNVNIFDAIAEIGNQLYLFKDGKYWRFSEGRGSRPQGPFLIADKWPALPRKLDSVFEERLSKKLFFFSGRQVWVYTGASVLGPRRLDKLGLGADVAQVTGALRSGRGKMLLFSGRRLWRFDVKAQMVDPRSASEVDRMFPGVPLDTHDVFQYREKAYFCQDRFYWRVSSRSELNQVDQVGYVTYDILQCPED
For experiment [4], the target named is T1, Human elastase (Homo sapiens, UniProt P08246).
T1 sequence (P08246 30-247 limits assumed): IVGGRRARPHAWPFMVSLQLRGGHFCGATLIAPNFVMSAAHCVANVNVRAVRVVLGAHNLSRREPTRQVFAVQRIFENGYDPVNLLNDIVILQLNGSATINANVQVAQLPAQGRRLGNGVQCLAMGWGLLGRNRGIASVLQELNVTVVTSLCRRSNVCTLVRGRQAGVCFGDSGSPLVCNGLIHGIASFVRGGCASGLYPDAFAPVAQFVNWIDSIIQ
Briefly: Inhibition of purified human elastase in vitro. It is filed as biochemical. The method, then:
as §1

Experiment [5] deals with mesenchymal cells from the limb buds of murine embryos (chondrocytes). Briefly: Organoid model of cartilage formation: mineralisation in the presence of LPS. The experiment is classed as cell-based. As to conditions: concentration of 10 μm; calcium content of extracellular matrix after culturing for 14 days. The method, then: In a further in vitro experiment, the effectiveness of the compounds as regards inflammatory diseases was tested in an organoid model of cartilage formation. For that model, mesenchymal cells from the limb buds of murine embryos were placed in cell culture. In the cell culture, the cells formed an extracellular matrix corresponding to joint cartilage. Mineralisation of the extracellular matrix was induced by addition of β-glycerophosphate. Cartilage formation and mineralisation were inhibited by addition of bacterial lipopolysaccharide (LPS) as inflammation mediator. The effect of the compounds on the LPS-induced impairment of mineralisation was examined by measuring the calcium content of the extracellular matrix by flame photometry after culturing for 14 days.
The values indicate the percentage increase in mineralisation in comparison with the LPS-treated culture.

In experiment [6] the target is T2, Human fibroblast collagenase (MMP-1) (Homo sapiens, UniProt P03956).
T2 sequence (P03956 100-469): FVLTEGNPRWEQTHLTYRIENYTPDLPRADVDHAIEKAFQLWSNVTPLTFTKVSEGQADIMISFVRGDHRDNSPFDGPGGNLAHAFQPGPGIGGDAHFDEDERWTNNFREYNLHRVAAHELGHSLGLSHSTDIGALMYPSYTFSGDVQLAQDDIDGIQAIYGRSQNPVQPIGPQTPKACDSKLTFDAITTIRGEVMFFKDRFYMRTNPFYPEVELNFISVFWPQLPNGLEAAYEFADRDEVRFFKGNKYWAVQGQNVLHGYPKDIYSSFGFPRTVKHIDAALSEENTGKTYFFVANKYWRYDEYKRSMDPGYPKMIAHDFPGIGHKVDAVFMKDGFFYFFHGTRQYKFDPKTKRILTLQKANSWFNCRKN
Briefly: Inhibition of purified human fibroblast collagenase in vitro. The experiment is classed as biochemical. As to conditions: read-out: Human fibroblast collagenase (MMP-1): % inhibition at concentration. The procedure: as §1

Chain of Human leucocyte collagenase (MMP-8) (P22894 101-467): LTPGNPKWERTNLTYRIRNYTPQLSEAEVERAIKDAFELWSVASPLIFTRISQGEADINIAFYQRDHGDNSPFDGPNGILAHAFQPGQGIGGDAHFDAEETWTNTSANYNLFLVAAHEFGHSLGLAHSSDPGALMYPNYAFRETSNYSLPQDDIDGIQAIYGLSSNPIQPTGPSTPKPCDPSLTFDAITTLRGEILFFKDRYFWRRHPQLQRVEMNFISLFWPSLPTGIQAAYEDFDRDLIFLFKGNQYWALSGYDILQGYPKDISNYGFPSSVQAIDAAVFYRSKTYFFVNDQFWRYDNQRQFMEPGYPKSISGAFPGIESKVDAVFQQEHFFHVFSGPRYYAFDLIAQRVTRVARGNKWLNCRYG
Chain of Stromelysin-1 (MMP-3) (P08254 100-477): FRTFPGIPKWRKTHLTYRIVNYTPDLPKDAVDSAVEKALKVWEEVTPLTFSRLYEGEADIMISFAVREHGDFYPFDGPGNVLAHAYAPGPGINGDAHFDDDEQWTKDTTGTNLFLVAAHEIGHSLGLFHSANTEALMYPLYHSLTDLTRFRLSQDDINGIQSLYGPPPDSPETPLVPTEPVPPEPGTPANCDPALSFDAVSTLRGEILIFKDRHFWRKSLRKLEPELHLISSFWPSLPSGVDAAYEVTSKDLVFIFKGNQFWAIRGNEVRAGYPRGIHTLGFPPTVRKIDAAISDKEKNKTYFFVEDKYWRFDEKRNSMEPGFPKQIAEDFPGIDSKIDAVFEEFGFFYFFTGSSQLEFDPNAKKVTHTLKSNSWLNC

With `COC(=O)C1=Cc2cc(O)c(O)c(O)c2CC1` [Example 1, 5,6,7-trihydroxy-3,4-dihydronaphthalene-2-carboxylic acid methyl ester], the IC50 in experiment [1] is 850 µM; in experiment [2], 60 µM; in experiment [3], 72 µM; in experiment [4], 5.5 µM. For the same molecule, the “Chondrocytes: Mineralisation in the presence of LPS; action (percentage increase in mineralisation in comparison with the LPS-treated culture)” value in experiment [5] is recorded as “+42%”.
For `CCCCCC#Cc1ccc(O)c(O)c1C=CC(=O)OC` [Example 2, 3-(6-hept-1-ynyl-2,3-dihydroxy-phenyl)-acrylic acid methyl ester], the IC50 in experiment [2] was 173 µM; in experiment [4], 2 µM. Further, the “Chondrocytes: Mineralisation in the presence of LPS; action (percentage increase in mineralisation in comparison with the LPS-treated culture)” value in experiment [5] is given as “+38%”.
On to `CCCCCCCCCOc1ccc(O)c(O)c1` [Example 3, 4-nonyloxy-1,2-benzene diol], for which the IC50 was 320 µM in experiment [1] and 1.6 µM in experiment [4]. Also, the inhibition at 100 µM in experiment [2] (100 μM, read-out: Human leucocyte collagenase (MMP-8): % inhibition at concentration) is 40%. In addition, in experiment [5], the “Chondrocytes: Mineralisation in the presence of LPS; action (percentage increase in mineralisation in comparison with the LPS-treated culture)” value is reported as “+43%”.
In turn, `OCC#CCCCCCCC#Cc1ccc(O)c(O)c1` [Example 4, 4-(11-hydroxy-undeca-1,9-diynyl)-1,2-benzene diol] gave an IC50 in experiment [4] of 55 µM. Further, the “Chondrocytes: Mineralisation in the presence of LPS; action (percentage increase in mineralisation in comparison with the LPS-treated culture)” value in experiment [5] is reported as “+12%”.
With `Oc1ccc(C=Cc2ccc3ccccc3c2)cc1O` [Example 5, 4-(2-naphth-2-yl-vinyl)-1,2-benzene diol], the inhibition at 100 µM in experiment [6] was 40%; in experiment [1] (100 μM, read-out: Stromelysin-1 (MMP-3) % inhibition at concentration), 22%. Also, the half-inhibitory concentration (IC50) in experiment [2] worked out at 100 µM; in experiment [3], 32 µM; in experiment [4], 0.125 µM. For the same molecule, the “Chondrocytes: Mineralisation in the presence of LPS; action (percentage increase in mineralisation in comparison with the LPS-treated culture)” value in experiment [5] is listed as “+81%”.
In the case of `O=C(c1ccc(O)c(O)c1)c1cc(-c2ccccc2)[nH]n1` [Example 6, (3,4-dihydroxy-phenyl)(5-phenyl-1H-pyrazol-3-yl)-methanone], the “Chondrocytes: Mineralisation in the presence of LPS; action (percentage increase in mineralisation in comparison with the LPS-treated culture)” value in experiment [5] is listed as “+17%”.
